In patent US11046697B2, “Compounds and compositions useful for treating disorders related to NTRK” (BLUEPRINT MEDICINES CORPORATION, priority 2015, dated 2021):
Read-outs that look alike come from different tables or passages of the source.

Key:
wild type NTRK1 enzyme = target: T1, wild type NTRK1 enzyme (Homo sapiens, UniProt P04629); assay: NTRK1 Wild Type Assay at 1 mM ATP; assay type: biochemical; conditions: 1 mM ATP; read-out: Enz NTRK1 IC50
T1 construct: purchased BPS Bioscience 40280
Description: NTRK1 Wild Type Assay at 1 mM ATP
The reaction was stopped by the addition of 70 μL of Stop buffer (100 mM HEPES pH 7.5, 0.015% Brij 35, 35 mM EDTA and 0.2% of Coating Reagent 3 (Caliper Lifesciences)). The plate was then read on a Caliper EZReader 2 (protocol settings: −1.7 psi, upstream voltage −500, downstream voltage −3000, post sample sip 35s).

[1] = system: KM12 wild type colon carcinoma cell line harboring the TPM3-NTRK1 fusion protein; assay: NTRK wild type cellular assay (CellTiter-Glo growth inhibition); assay type: cell-based; conditions: 72 hr, CellTiter-Glo, read-out: KM12 (WT) IC50
Description: (§1) NTRK Wild Type and G595R Mutant Cellular Assays Protocol
(§2) KM12 wild type colon carcinoma cell line harboring the TPM3-NTRK1 fusion protein was obtained from the National Cancer Institute (NCI). This line has been previously shown to be dependent upon the NTRK activity derived from the NTRK fusion protein for growth and survival. […] Cells were first plated in 384-well plates at 1000 cells/well in complete media (10% FBS and 1% pen/strep) and incubated overnight at 37° C. Cells were then dosed with test articles at varying concentrations using the Bravo liquid handling system. […] Each compound was run in duplicate per plate. […] 72 hr after dosing, assay plates were developed using CellTiter-Glo (Promega) and resultant luminescence was read on the Envision plate reader. IC50 determinations were calculated using a 4-parameter curve fitting algorithm

[2] = system: KM12 Cliff (G595R) cell line; assay: NTRK G595R mutant cellular assay (CellTiter-Glo growth inhibition); assay type: cell-based; conditions: 72 hr, CellTiter-Glo
Description: as §1, §2

T1 sequence (P04629 440-796 limits assumed): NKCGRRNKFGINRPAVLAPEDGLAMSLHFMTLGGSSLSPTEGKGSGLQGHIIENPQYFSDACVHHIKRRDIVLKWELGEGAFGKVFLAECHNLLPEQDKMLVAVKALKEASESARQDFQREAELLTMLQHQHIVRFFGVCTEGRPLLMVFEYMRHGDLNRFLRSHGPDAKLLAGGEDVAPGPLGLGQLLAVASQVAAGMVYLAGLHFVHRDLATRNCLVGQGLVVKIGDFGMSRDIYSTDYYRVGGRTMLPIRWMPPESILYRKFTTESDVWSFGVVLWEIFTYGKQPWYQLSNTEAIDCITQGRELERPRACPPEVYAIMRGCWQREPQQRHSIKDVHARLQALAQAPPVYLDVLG

| Structure (SMILES) | IC50 (wild type NTRK1 enzyme) | IC50 ([1]; Homo sapiens, KM12, 72 h) | IC50 ([2]; Homo sapiens, KM12, 72 h) | IC50 [1] | IC50 [2] |
| --- | --- | --- | --- | --- | --- |
| O=C(c1n[nH]c2ncnc(N[C@@H]3CC[C@@H](O)[C@H]3O)c12)N1C[C@@H](F)C[C@@H]1c1cc(F)cc(F)c1 [Compound 173] | < 10 nM | < 10 nM | < 10 nM |  |  |
| O=C(c1n[nH]c2ncnc(NC3CCOCC3O)c12)N1CC(F)CC1c1cc(F)cc(F)c1 (stereo not drawn) [Compound 174] | < 10 nM |  |  | < 10 nM | < 10 nM |
| O=C(c1n[nH]c2ncnc(NC3CCOCC3O)c12)N1CC(F)CC1c1cccc(F)c1F (stereo not drawn) [Compound 175] | < 10 nM |  |  | 10 to 100 nM | 10 to 100 nM |
| O=C(c1n[nH]c2ncnc(N[C@@H]3CC[C@@H](O)[C@H]3O)c12)N1C[C@@H](F)C[C@@H]1c1cccc(F)c1F [Compound 176] | < 10 nM |  |  | 10 to 100 nM | 10 to 100 nM |
| O=C(c1n[nH]c2ncnc(N[C@@H]3CCC[C@H]3O)c12)N1C[C@@H](F)C[C@@H]1c1cc(F)cnc1Cl [Compound 177] | < 10 nM | < 10 nM | < 10 nM |  |  |
| O=C(c1n[nH]c2ncnc(NC3CC(F)CC3O)c12)N1CC(F)CC1c1cc(F)cc(F)c1 (stereo not drawn) [Compound 178] | < 10 nM |  |  | 10 to 100 nM | 10 to 100 nM |
| CN(Cc1cc(F)cc(OC(F)F)c1)C(=O)c1n[nH]c2ncnc(N[C@@H]3CC[C@@H](O)[C@H]3O)c12 [Compound 179] | 10 to 100 nM |  |  | 10 to 100 nM | 100 to 1000 nM |
| CN(C(=O)c1n[nH]c2ncnc(NC3CC(C(F)F)CC3O)c12)C(CO)c1cc(F)ccc1F (stereo not drawn) [Compound 180] | < 10 nM |  |  | < 10 nM | < 10 nM |
| N#Cc1cc(F)cc(C2CC(F)CN2C(=O)c2n[nH]c3ncnc(NC4CCOCC4O)c23)c1 (stereo not drawn) [Compound 181] | < 10 nM |  |  | 10 to 100 nM | 10 to 100 nM |
| N#Cc1cc(F)cc(C2CC(F)CN2C(=O)c2n[nH]c3ncnc(NC4COCCC4O)c23)c1 (stereo not drawn) [Compound 182] | < 10 nM |  |  | < 10 nM | 10 to 100 nM |
| O=C(c1n[nH]c2ncnc(NC3CCOCC3O)c12)N1CC(F)CC1c1cc(F)ccc1Br (stereo not drawn) [Compound 183] | < 10 nM |  |  | < 10 nM | < 10 nM |
| N#CC1CC(O)C(Nc2ncnc3[nH]nc(C(=O)N4CC(F)CC4c4cc(F)ccc4F)c23)C1 (stereo not drawn) [Compound 184] | < 10 nM |  |  | < 10 nM | < 10 nM |
| N#CC1CC(O)C(Nc2ncnc3[nH]nc(C(=O)N4CC(F)CC4c4cc(F)cc(F)c4)c23)C1 (stereo not drawn) [Compound 185] | < 10 nM |  |  | < 10 nM | < 10 nM |
| O=C(c1n[nH]c2ncnc(N[C@H]3[C@H](O)[C@H](O)[C@@H]4C[C@@H]43)c12)N1C[C@@H](F)C[C@@H]1c1cc(F)cc(F)c1 [Compound 188] | < 10 nM | < 10 nM | < 10 nM |  |  |
| O=C(c1n[nH]c2ncnc(N[C@H]3[C@H](O)[C@H](O)[C@@H]4C[C@@H]43)c12)N1C[C@@H](F)C[C@@H]1c1cccc(F)c1F [Compound 189] | < 10 nM |  |  | < 10 nM | 10 to 100 nM |
| COc1ncc(F)cc1[C@H]1C[C@H](F)CN1C(=O)c1n[nH]c2ncnc(N[C@@H]3CCOC[C@H]3O)c12 [Compound 190] | < 10 nM | 10 to 100 nM | 10 to 100 nM |  |  |
| O=C(c1n[nH]c2ncnc(NC3CC[C@@H](O)C[C@H]3O)c12)N1C[C@@H](F)C[C@@H]1c1cc(F)ccc1F (stereo partly drawn) [Compound 191] | < 10 nM |  |  | 10 to 100 nM | 10 to 100 nM |
| O=C(c1n[nH]c2ncnc(N[C@@H]3C=C[C@@H](O)[C@H]3O)c12)N1C[C@@H](F)C[C@@H]1c1cc(F)cc(Cl)c1 [Compound 192] | < 10 nM |  |  | 10 to 100 nM | 10 to 100 nM |
| O=C(c1n[nH]c2ncnc(NC3CCCC(O)C3O)c12)N1CC(F)CC1c1cccc(F)c1F (stereo not drawn) [Compound 193] | < 10 nM |  |  | 10 to 100 nM | 10 to 100 nM |
| O=C(c1n[nH]c2ncnc(N[C@@H]3C=C[C@@H](O)[C@H]3O)c12)N1C[C@@H](F)C[C@@H]1c1cc(F)cnc1Cl [Compound 194] | 10 to 100 nM |  |  | 10 to 100 nM | 10 to 100 nM |
| O=C(c1n[nH]c2ncnc(N[C@@H]3CC[C@@H](O)[C@H]3O)c12)N1C[C@@H](F)C[C@@H]1c1cc(F)ccc1Cl [Compound 195] | < 10 nM | < 10 nM | < 10 nM |  |  |
| O=C(c1n[nH]c2ncnc(N[C@@H]3CCOC[C@H]3O)c12)N1C[C@@H](F)C[C@@H]1c1cc(F)ccc1Cl [Compound 196] | < 10 nM | < 10 nM | < 10 nM |  |  |
